Results reported in publication PMC6984126, “Ficus deltoidea extract down-regulates protein tyrosine phosphatase 1B expression in a rat model of type 2 diabetes mellitus: a new insight into its antidiabetic mechanism” (Journal of Nutritional Science, 2020).
Marks after values point to notes of the source that are not given here.

How the values were obtained:
GLUT2 gene (Slc2a2) mRNA = test: Hepatic gene expression by quantitative real-time PCR: Slc2a2; details: liver mRNA; MET 150 mg/kg
Experimental: (§3) Total RNA was isolated from rat livers using an Rneasy Mini Kit according to the manufacturer's protocol (Qiagen). First-strand cDNA synthesis from 1 µg total RNA was done employing a reverse transcriptase kit and oligo(dT) (Thermo Scientific). PTP1B, phosphoenolpyruvate carboxykinase (PEPCK), glucose 6-phosphatase (G6Pase), GLUT2 (Slc2a2) and insulin receptor (INR) target genes were amplified by quantitative real-time-PCR using specific primers (Supplementary Table S1). cDNA was added to a Quantifast SYBR Green qPCR Master Mix (Qiagen) containing 30 pg/ml of each primer. […] The β-actin gene was amplified in the same reaction as a reference gene to normalise data. Relative gene expression was calculated using the Livak & Schmittgen method([42]).

GLUT2 = GLUT2 protein levels in liver and pancreas of diabetic rats; type: in vivo, Wistar rats; details: MET 150 mg/kg
Experimental: (§1) NA was dissolved in normal saline.
(§2) At the end of the 28th day, blood samples were withdrawn from the retro-orbital venous plexus under light ether anaesthesia into two sampling tubes, one containing Na-EDTA at day 28 post-medication for the estimation of Hb([22]). The second blood sample was centrifuged at 3500 rpm for 15 min to separate sera for the estimation of insulin level([23]). Other biochemical parameters such as alanine transaminase and aspartate transaminase activities in serum were measured([24]). Serum levels of total bilirubin([25]), total protein([26]), TAG([27]), total cholesterol([28]), HDL-cholesterol([29]) and LDL-cholesterol([30]) were measured using commercially available kits (Quimica Clinica). Preparation of pancreatic homogenate was done according to Mansour et al.([31]). The activities of superoxide dismutase (SOD), glutathione peroxidase (GPx) and catalase (CAT) in hepatic and pancreatic tissues were estimated([32]–[34]), respectively. Reduced glutathione (GSH)([35]), lipid peroxidation products were estimated by determining malondialdehyde (MDA) content in the hepatic and pancreatic tissue([36]) and GLUT2 was determined using commercial diagnostic kits (Chema Diagnostica)([37]).

[1] = test system: phosphoenolpyruvate carboxykinase (PEPCK) mRNA; test: Hepatic gene expression by quantitative real-time PCR: PEPCK; details: MET 150 mg/kg
Experimental: as §3

[2] = test system: streptozotocin–nicotinamide-induced type 2 diabetic rats; test: Serum hepatic markers, bilirubin and total protein in STZ–NA diabetic rats; type: in vivo, Wistar rats; details: MET 150 mg/kg orally, 4 weeks
Experimental: as §1, §2

[3] = test system: glucose 6-phosphatase (G6Pase) mRNA; test: Hepatic gene expression by quantitative real-time PCR: G6Pase; details: MET 150 mg/kg
Experimental: as §3

[4] = test system: insulin receptor (INR) mRNA; test: Hepatic gene expression by quantitative real-time PCR: insulin receptor; details: MET 150 mg/kg
Experimental: as §3

PTP1B mRNA = test: Hepatic gene expression by quantitative real-time PCR: PTP1B; details: liver mRNA; MET 150 mg/kg
Experimental: as §3

[5] = test system: streptozotocin–nicotinamide-induced type 2 diabetic rats; test: Fasting blood glucose, insulin and Hb in STZ–NA diabetic rats; type: in vivo, Wistar rats; details: MET 150 mg/kg orally; 4 weeks
Experimental: as §1, §2

[6] = test system: streptozotocin–nicotinamide-induced type 2 diabetic rats; test: Pancreatic oxidative stress biomarkers in STZ–NA diabetic rats; type: in vivo, Wistar rats; details: MET 150 mg/kg
Experimental: as §1, §2

Structure (SMILES)	melting point [°C]	Slc2a2 expression, % of the normal level (GLUT2 gene (Slc2a2) mRNA) [%]	GLUT2 in the liver compared with the diabetic control (GLUT2)	GLUT2 in the pancreas compared with the diabetic control (GLUT2)	Expression of PEPCK in the liver [1]	Total bilirubin [2]	Total protein [2]	Expression of G6Pase in the liver [3]	Effect of STZ on hepatic insulin receptor mRNA levels [4]	PTP1B expression level, % of the levels in the diabetic group (PTP1B mRNA)	Hb [5]	Effect on MDA level in the pancreas of diabetic rats [6]	Increase in pancreatic GPx compared with diabetic control rats [6] [%]	Increase in pancreatic GSH content [6] [%]
CC1(C)CC[C@]2(C)CC[C@]3(C)C(=C[C@H](O)C4[C@@]5(C)CC[C@H](O)[C@@](C)(C(=O)O)C5CC[C@]43C)C2C1 (stereo partly drawn) [Compound F3, 3β,11β-dihydroxyolean-12-en-23-oic acid]	308 to 309													
CN(C)C(=N)N=C(N)N [MET, metformin]		92	significantly increased	significantly increased	decreased expression	4† mg/l	114* g/l	decreased expression	reversed	approximately 75%	135† g/l	did not significantly affect	63	46
